Measurements from ChEMBL document CHEMBL5661943, “ASAP - In vitro antiviral effect” (2024).

Experiments:
Assay type in all cases: organism-based, Chlorocebus sabaeus, Vero C1008
dengue virus type 2 = experiment: Functional assay to measure dose dependent changes in antiviral-drug inhibitory efficacy against Dengue virus type 2 New Guinea C in Vero E6 miRFP670 cells (cotreated with P-gp inhibitor, CP100356). Cells are treated with antiviral candidates that are serially diluted, following infection, cells are fixed. EC50 is reported via analysis of fluorescence intensity using high-content imager. The …
Zika virus [1] = experiment: (§1) Functional CPE-based assay to measure dose dependent changes in antiviral-drug inhibitory efficacy against Zika virus MR766 in Vero E6 miRFP670 cells (cotreated with P-gp inhibitor, CP100356). Cells are treated with antiviral candidates that are serially diluted. EC50 is reported via analysis of MTS assay as a readout of CPE. The assay has been performed by KU Leuven.; details: Zika virus; for EC90: P-gp concentration 500 nM, P-gp inhibitor CP100356
Zika virus [2] = experiment: as §1, with “cells.” for “cells (cotreated with P-gp inhibitor, CP100356).”; details: Zika virus; for EC50: Vero C1008

Compound O=C(Nc1cc(Cl)cc(C(=O)Nc2ccc(C3CCNCC3)cc2)c1)OCc1ccccc1 has an EC90 (dengue virus type 2; Baseline response 0 %, Hill slope -20.516, Maximum measured 137.543 %, Maximum response 100 %, Minimum measured 2.498 %, P-gp concentration 500 nM, R squared 0.862, P-gp inhibitor CP100356) of 1.68 µM, an EC50 (dengue virus type 2; Dengue virus, Vero C1008) of 2.86 µM and an EC90 (dengue virus type 2; Dengue virus, Vero C1008) of 3.23 µM. For the same compound, the EC50 (dengue virus type 2; vero c1008) was 1.51 µM, the EC50 (Zika virus [1]; Vero C1008) was > 50 µM and the EC90 (Zika virus [1]; Vero C1008, Maximum measured 2.883 %, Minimum measured -3.299 %) was > 50 µM. The EC50 (Zika virus [2]) was > 50 µM and the EC90 (Zika virus [2]; Vero C1008, Maximum measured […], Minimum measured -3.389 %) was > 50 µM.

In the case of O=C(Nc1cc(Cl)cc(-c2ccc3cc(C(=O)O)[nH]c3c2)c1)OCc1ccccc1, the EC50 (dengue virus type 2; Dengue virus, Vero C1008) is reported as 27.6 µM, the EC90 (dengue virus type 2; Dengue virus, Vero C1008, Baseline response 0 %, Hill slope -2.588, Maximum measured 127.292 %, Maximum response 100 %, Minimum measured 18.339 %, P-gp concentration 500 nM, R squared 0.622, P-gp inhibitor CP100356) is reported as > 50 µM and the EC50 (Zika virus [1]; Vero C1008) is reported as > 50 µM. For the same compound, the EC90 (Zika virus [1]; Vero C1008, Baseline response 0 %, Hill slope 0.219, Maximum measured 11.412 %, Maximum response 100 %, Minimum measured -1.306 %, R squared 0.087) was > 50 µM, the EC50 (Zika virus [2]) was > 50 µM and the EC90 (Zika virus [2]; Vero C1008, Maximum measured -0.377 %, Minimum measured -2.566 %) was > 50 µM.

CNC(=O)[C@H](Nc1cc(CN)cc(C(=O)O)c1)c1cc(Cl)cc(C2CC2)c1 was tested, and the EC50 (dengue virus type 2; Dengue virus, Vero C1008) was > 50 µM, the EC90 (dengue virus type 2; Dengue virus, Vero C1008, Maximum measured 120.74 %, Minimum measured 102.141 %, P-gp concentration 500 nM, P-gp inhibitor CP100356) was > 50 µM and the EC50 (Zika virus [2]) was > 50 µM. For the same compound, the EC90 (Zika virus [2]; Vero C1008, Maximum measured 1.859 %, Minimum measured -2.673 %) was > 50 µM.

For C[C@@]1(c2cccc(CN)c2)C[C@H]1c1cc(Cl)cc(NC(=O)OCc2ccccc2)c1, the EC50 (dengue virus type 2; Dengue virus, Vero C1008) was 2.11 µM, the EC90 (dengue virus type 2; Dengue virus, Vero C1008, Baseline response 0 %, Hill slope -1.211, Maximum measured 80.402 %, Maximum response 100 %, Minimum measured 6.127 %, P-gp concentration 500 nM, R squared 0.862, P-gp inhibitor CP100356) was > 6.25 µM and the EC50 (Zika virus [2]) was > 50 µM. The EC90 (Zika virus [2]; Vero C1008, Maximum measured 2.64 %, Minimum measured -3.015 %) was > 50 µM.

O=C(O)c1cc2cc(-c3cc(Cl)cc(C4CC4)c3)ccc2[nH]1 was tested, and the EC50 (dengue virus type 2; Dengue virus, Vero C1008) was 45.8 µM, the EC90 (dengue virus type 2; Dengue virus, Vero C1008, Baseline response 0 %, Hill slope -21.982, Maximum measured 163.66 %, Maximum response 100 %, Minimum measured 12.537 %, P-gp concentration 500 nM, R squared 0.152, P-gp inhibitor CP100356) was > 50 µM and the EC50 (Zika virus [1]; Vero C1008) was > 50 µM. The EC90 (Zika virus [1]; Vero C1008, Baseline response 0 %, Hill slope 0.262, Maximum measured 7.755 %, Maximum response 100 %, Minimum measured -1.169 %, R squared 0.013) was > 50 µM, the EC50 (Zika virus [2]) was > 50 µM and the EC90 (Zika virus [2]; Vero C1008, Baseline response 0 %, Hill slope 0.633, Maximum measured 10.894 %, Maximum response 100 %, Minimum measured 0.566 %, R squared 0.67) was > 50 µM.

CCc1cc(Br)cc2c(Cc3ccc(-c4nnn[nH]4)cc3)c[nH]c12 was tested, and the EC90 (dengue virus type 2; Baseline response 0 %, Hill slope -20.83, Maximum measured 154.882 %, Maximum response 100 %, Minimum measured 18.569 %, P-gp concentration 500 nM, R squared 0.389, P-gp inhibitor CP100356) was > 25 µM, the EC50 (dengue virus type 2; Dengue virus, Vero C1008) was 24.8 µM and the EC90 (dengue virus type 2; Dengue virus, Vero C1008, Baseline response 0 %, Hill slope -25.951, Maximum measured 114.444 %, Maximum response 100 %, Minimum measured 0.23 %, P-gp concentration 500 nM, R squared 0.943, P-gp inhibitor CP100356) was 26.9 µM. The EC50 (dengue virus type 2; vero c1008) was 23.3 µM, the EC50 (Zika virus [1]; Vero C1008) was > 50 µM and the EC90 (Zika virus [1]; Vero C1008, Maximum measured 2.453 %, Minimum measured -6.07 %) was > 50 µM. The EC50 (Zika virus [2]) was > 50 µM, the EC90 (Zika virus [2]; Vero C1008, Baseline response 0 %, Hill slope -0.347, Maximum measured 5.052 %, Maximum response 100 %, Minimum measured -3.467 %, R squared 0.177) was > 50 µM and the EC90 (Zika virus [2]; Vero C1008, Maximum measured -3.488 %, Minimum measured -8.239 %) was > 50 µM.
